Among the data in patent US20240423973A1, “COMPOUNDS, PHARMACEUTICAL COMPOSITIONS, AND METHODS FOR THE TREATMENT, PREVENTION, OR MANAGEMENT OF HYPERPROLIFERATIVE DISORDERS” (VINCERX PHARMA GMBH, priority 2021, published 2024) are IC50 values, retold here.

What all share (experiment): Cytotoxicity in vitro in the presence and absence of elastase (MTT assay)
(In general: Formazan colour is commonly taken as a measure of viable cells.)

In assay [1] the test system is SUM149. The class given is cell-based. To be noted: SUM149 cells, 72 h. How it is done: (§1) Cultivation of cells was performed according to standard procedures with the media recommended by the provider. The cells, in a total volume of 100 μL, were seeded in a 96-well plate with a white bottom (#3610). After a 24 h incubation period at 37° C. and 5% CO2, the medium was exchanged by adding 90 μL fresh medium. The treatment started by adding the test compound in 10 μL of culture medium to the cells in triplicates. Concentrations ranging from 10^−5 M to 10^−13 M were chosen. Two identically treated sets of samples were prepared. One set was treated with the test compound alone, whereas to the second set the compound and 10 nM elastase was added followed by a 72 h incubation period at 37° C. and 5% CO2. The proliferation was detected using the MTT assay (ATCC). At the end of the incubation period the MTT reagent was added to all samples for 4h. Lysis of the cells followed by addition of the detergent was done overnight. The formed dye was detected at 570 nm. The proliferation of untreated but otherwise identically handled cells was define as the […].

In assay [2] the test system is 786-O. The class given is cell-based, human. To be noted: 786-O cells, 72 h. As to the method:
as §1

Assay [3] relates to HT29. The assay is classed as cell-based, human. To be noted: HT29 cells, 72 h. As to the method: as §1
In assay [4] the test system is NCI H292. The class given is cell-based, human. As to conditions: NCI H292 cells, 72 h. How it is done:
as §1

By IC50 is commonly meant the concentration needed to halve the response being measured. Low readings indicate higher potency, high ones lower potency. As to `CCCNC(=O)Nc1cccc(S(=O)(=O)Nc2cccc([C@@H](CC(=O)O)NC(=O)Nc3ccc(NC(=O)NCCCC[C@H](NC(=O)Nc4ccc(NC(=O)N[C@H](CC(=O)O)c5cccc(NS(=O)(=O)c6cccc(NC(=O)NCCC)c6)c5)cc4)C(=O)NCCOCCOCCOCCC(=O)N[C@@H](CC(=O)O)C(=O)N4CCC[C@H]4C(=O)N[C@H](C(=O)O[C@]4(CC)C(=O)OCc5c4cc4n(c5=O)Cc5c-4nc4ccccc4c5CC)C(C)C)cc3)c2)c1` [Compound A1, Trisodium (4S)-4,11-diethyl-3,14-dioxo-3,4,12,14-tetrahydro-1H-pyrano[3′,4′:6,7]indolizino [1,2-b]quinoline-4-yl 1-[(2S)-15-{[N^2,N^6-bis({4-[({(1R)-2-carboxylato-1-[3-({3-[(propylcarbamoyl)amino]benzene-1-sulfonyl}amino)phenyl]ethyl}carbamoyl)amino]phenyl}carbamoyl)-L-lysyl]amino}-2-(carboxylatomethyl)-4-oxo-7,10,13-trioxa-3-azapentadecanan-1-oyl]-L-prolyl-L-valinate], the IC50 in assay [1] (compound alone (no elastase)) was 10 to 100 nM; in assay [1] (with 10 nM elastase), 0.01 to 0.1 nM; in assay [2] (compound alone (no elastase)) it was 10 to 100 nM; in assay [2] (with 10 nM elastase), 0.1 to 1 nM; in assay [3] (compound alone (no elastase)), over 100 nM; in assay [3] (with 10 nM elastase), 0.01 to 0.1 nM. Moreover, the IC50 in assay [4] (compound alone (no elastase)) is 10 to 100 nM; in assay [4] (with 10 nM elastase) it was 0.1 to 1 nM.

For the compound `CCCNC(=O)Cc1cccc(S(=O)(=O)Nc2cccc([C@@H](CC(=O)O)NC(=O)Nc3ccc(NC(=O)NCCOCCOCCOCCC(=O)N[C@@H](CCCCNC(=O)CCOCCOCCOCCNC(=O)Nc4ccc(NC(=O)N[C@H](CC(=O)O)c5cccc(CS(=O)(=O)c6cccc(NC(=O)NCCC)c6)c5)cc4)C(=O)NCCN(C)CCN(C)CCN(C)CC(=O)N[C@@H](CC(N)=O)C(=O)N4CCC[C@H]4C(=O)N[C@H](C(=O)O[C@]4(CC)C(=O)OCc5c4cc4n(c5=O)Cc5c-4nc4ccccc4c5CC)C(C)C)cc3)c2)c1` [Compound A5], the IC50 was 1.1 to 10 nM in assay [1] (compound alone (no elastase)); under 0.01 nM in assay [1] (with 10 nM elastase); 10 to 100 nM in assay [2] (compound alone (no elastase)); 0.01 to 0.1 nM in assay [2] (with 10 nM elastase); 10 to 100 nM in assay [3] (compound alone (no elastase)); 0.01 to 0.1 nM in assay [3] (with 10 nM elastase). For the same compound, the IC50 was 1.1 to 10 nM in assay [4] (compound alone (no elastase)) and under 0.01 nM in assay [4] (with 10 nM elastase).

With `CCCNC(=O)Cc1cccc(S(=O)(=O)Nc2cccc([C@H](CC(=O)O)NC(=O)Nc3ccc(NC(=O)NCCOCCOCCOCCC(=O)N[C@@H](CCCCNC(=O)CCOCCOCCOCCNC(=O)Nc4ccc(NC(=O)N[C@@H](CC(=O)O)c5cccc(NS(=O)(=O)c6cccc(NC(=O)NCCC)c6)c5)cc4)C(=O)NCCN(C)CCN(C)CCN(C)CC(=O)N[C@@H](CC(N)=O)C(=O)N4CCC[C@H]4C(=O)N[C@H](C(=O)O[C@]4(CC)C(=O)OCc5c4cc4n(c5=O)Cc5c-4nc4ccccc4c5CC)C(C)C)cc3)c2)c1` [Compound A6], the half-inhibitory concentration (IC50) lay in the range of 1.1 to 10 nM in assay [1] (compound alone (no elastase)); 0.01 to 0.1 nM in assay [1] (with 10 nM elastase); 10 to 100 nM in assay [2] (compound alone (no elastase)); 0.1 to 1 nM in assay [2] (with 10 nM elastase); 10 to 100 nM in assay [3] (compound alone (no elastase)); 0.1 to 1 nM in assay [3] (with 10 nM elastase). Besides, the IC50 in assay [4] (compound alone (no elastase)) was 1.1 to 10 nM; in assay [4] (with 10 nM elastase), 0.1 to 1 nM.

In the case of `CCCNC(=O)Nc1cccc(S(=O)(=O)Nc2cccc([C@@H](CC(=O)O)NC(=O)Nc3ccc(NC(=O)NCCCCN(C)CCN(C)CCN(C)CC(=O)N[C@@H](CCCCNC(=O)CN(C)CCN(C)CCN(C)CCNC(=O)Nc4ccc(NC(=O)N[C@H](CC(=O)O)c5cccc(NS(=O)(=O)c6cccc(NC(=O)NCCC)c6)c5)cc4)C(=O)NCCN(C)CCN(C)CCN(C)CC(=O)N[C@@H](CC(N)=O)C(=O)N4CCC[C@H]4C(=O)N[C@H](C(=O)O[C@]4(CC)C(=O)OCc5c4cc4n(c5=O)Cc5c-4nc4ccccc4c5CC)C(C)C)cc3)c2)c1` [Compound A7], the IC50 in assay [1] (compound alone (no elastase)) was in the range of 1.1 to 10 nM; in assay [1] (with 10 nM elastase), 0.1 to 1 nM; in assay [2] (compound alone (no elastase)), 10 to 100 nM; in assay [2] (with 10 nM elastase), 0.1 to 1 nM; in assay [3] (compound alone (no elastase)), 10 to 100 nM; in assay [3] (with 10 nM elastase), 0.1 to 1 nM. Moreover, the IC50 lay in the range of 1.1 to 10 nM in assay [4] (compound alone (no elastase)) and 0.1 to 1 nM in assay [4] (with 10 nM elastase).

In the case of `CCCNC(=O)Nc1cccc(S(=O)(=O)Nc2cccc([C@H](CC(=O)O)NC(=O)Nc3ccc(NC(=O)NCCN(C)CCN(C)CCN(C)CC(=O)NCCCC[C@H](NC(=O)CN(C)CCN(C)CCN(C)CCNC(=O)Nc4ccc(NC(=O)N[C@@H](CC(=O)O)c5cccc(NS(=O)(=O)c6cccc(NC(=O)NCCC)c6)c5)cc4)C(=O)NCCN(C)CCN(C)CCN(C)CC(=O)N[C@@H](CC(N)=O)C(=O)N4CCC[C@H]4C(=O)N[C@H](C(=O)O[C@]4(CC)C(=O)OCc5c4cc4n(c5=O)Cc5c-4nc4ccccc4c5CC)C(C)C)cc3)c2)c1` [Compound A8], the IC50 in assay [1] (compound alone (no elastase)) is 1.1 to 10 nM; in assay [1] (with 10 nM elastase), 0.1 to 1 nM; in assay [2] (compound alone (no elastase)) it was 10 to 100 nM; in assay [2] (with 10 nM elastase), 0.1 to 1 nM; in assay [3] (compound alone (no elastase)), 10 to 100 nM; in assay [3] (with 10 nM elastase), 0.1 to 1 nM. The values for the 50% inhibitory concentration (IC50) in assay [4] (compound alone (no elastase)) and in assay [4] (with 10 nM elastase) were 1.1 to 10 nM and 0.1 to 1 nM, respectively.

With `CCCNC(=O)Nc1cccc(S(=O)(=O)Nc2cccc([C@@H](CC(=O)O)NC(=O)Nc3ccc(NC(=O)NCCN(C)CCN(C)CCN(C)CC(=O)NCC(=O)N4CCC[C@H]4C(=O)N[C@H](C(=O)O[C@]4(CC)C(=O)OCc5c4cc4n(c5=O)Cc5c-4nc4ccccc4c5CC)C(C)C)cc3)c2)c1` [Compound B2, (4S)-4,11-diethyl-3,14-dioxo-3,4,12,14-tetrahydro-1H-pyrano[3′,4′:6,7]indolizino[1,2-b]quinolin-4-yl N-{2-[{2-[{2-[({4-[({(1R)-2-carboxy-1-[3-({3-[(propylcarbamoyl)amino]benzene-1-sulfonyl}amino)phenyl]ethyl}carbamoyl)amino]phenyl}carbamoyl)amino]ethyl}(methyl)amino]ethyl}(methyl)amino]ethyl}-N-methylglycylglycyl-L-prolyl-L-valinate], the concentration for half-maximal inhibition (IC50) was 0.1 to 1 nM in assay [1] (compound alone (no elastase)); under 0.01 nM in assay [1] (with 10 nM elastase); 1.1 to 10 nM in assay [2] (compound alone (no elastase)); under 0.01 nM in assay [2] (with 10 nM elastase); 10 to 100 nM in assay [3] (compound alone (no elastase)); under 0.01 nM in assay [3] (with 10 nM elastase). In addition, the values for the half-inhibitory concentration (IC50) in assay [4] (compound alone (no elastase)) and in assay [4] (with 10 nM elastase) were 1.1 to 10 nM and under 0.01 nM, respectively.

In the case of `CCCNC(=O)Nc1cccc(S(=O)(=O)Nc2cccc([C@@H](CC(=O)O)NC(=O)Nc3ccc(NC(=O)NCCN(C)CCN(C)CCN(C)CC(=O)N[C@@H](CC(N)=O)C(=O)N4CCC[C@H]4C(=O)N[C@H](C(=O)O[C@]4(CC)C(=O)OCc5c4cc4n(c5=O)Cc5c-4nc4ccccc4c5CC)C(C)C)cc3)c2)c1` [Compound B4, (4S)-4,11-Diethyl-3,14-dioxo-3,4,12,14-tetrahydro-1H-pyrano[3′,4′:6,7]indolizino[1,2-b]quinolin-4-yl N-{2-[{2-[{2-[({4-[({(1R)-2-carboxy-1-[3-({3-[(propylcarbamoyl)amino]benzene-1-sulfonyl}amino)phenyl]ethyl}carbamoyl)amino]phenyl}carbamoyl)amino]ethyl} (methyl)amino]ethyl} I(methyl)amino]ethyl}-N-methylglycyl-L-asparaginyl-L-prolyl-L-valinate], the half-inhibitory concentration (IC50) in assay [1] (compound alone (no elastase)) is 1.1 to 10 nM; in assay [1] (with 10 nM elastase), under 0.01 nM; in assay [2] (compound alone (no elastase)) it was 10 to 100 nM; in assay [2] (with 10 nM elastase), 0.01 to 0.1 nM; in assay [3] (compound alone (no elastase)), 10 to 100 nM; in assay [3] (with 10 nM elastase), 0.01 to 0.1 nM. For the same compound, the half-maximal inhibitory concentration (IC50) in assay [4] (compound alone (no elastase)) is 10 to 100 nM; in assay [4] (with 10 nM elastase), 0.01 to 0.1 nM.
